Format in all cases: cell-based
Series [1] deals with Mycobacterium tuberculosis strain H37Rv. Nature of the series: Mycobacterial growth inhibition assay (colorimetric MTT micro assay, MIC). (In general: Tetrazolium assays rely on reduction of a dye to a coloured formazan, in cell work by metabolically active cells.)
Series [2] is described as follows: Cytotoxicity evaluation on Vero cell line (MTT). The conditions noted are these: African green monkey, Vero cells, read-out: Anti-VERO CC50. As to the method:
(§1) The biological activity of the compounds of the present invention were evaluated. The activity against mycobacteria (Mtb) was assessed by minimum inhibitory concentration values (MIC, µM) determination. The selectivity index (SI) is defined as: SI = (CC50)/(MIC) [formula] wherein CC50 refers to the half maximal cytotoxic concentration of compounds towards particular eukaryotic cells, either for HCT116 cells and/or VERO cells; MIC refers to the minimum inhibitory concentration of the compounds towards mycobacteria.
Cytotoxicity evaluation of the tested molecules by MTT assay was performed on the Vero cell line. Briefly, cells (5.10^4 cells/mL) in 100 µL of complete medium [MEM supplemented with 10% fetal calf serum (FCS), 2 mM L-glutamine and antibiotics (100U/mL penicillin and 100 µg/mL streptomycin)] were seeded into each well of 96-well plates and incubated at 37 °C in a humidified 5% CO2 with 95% air atmosphere. After a 24 h incubation, 100 µL of medium with various product concentrations and appropriate controls were added and the plates were incubated for 72 h at 37 °C. Each plate-well was then microscope-examined for detecting possible precipitate formation before the medium was aspirated from the wells. 100 µL of MTT solution (0.5 mg/mL in complete MEM) were then added to each well. Cells were incubated for 1 h at 37 °C and the MTT solution was then removed, and DMSO (100 µL/well) was added to dissolve the resulting formazan crystals. Plates were shaken vigorously (300 rpm) for 5 min. The absorbance was measured at 570 nm with a microplate spectrophotometer (BIOTEK Eon). DMSO was used as blank and SDS as positive control. CC50 were calculated by non-linear regression analysis processed on dose-response curves, using TableCurve 2D V5 software.

Series [3] is described as follows: Cytotoxicity evaluation on HCT-116 cell line (SRB). The conditions noted are these: human, HCT-116 colon cancer cells, HCT-116 cells, 72 hours treatment, read-out: Anti-HCT116 CC50. As to the method:
as §1
Human HCT-116 colon cancer cells were seeded in 96-well plates (2500 cells/well) 24 hours before being treated for 72 hours with the tested compounds. Cells were grown and treated in DMEM 10% FBS. For each compound, 11 concentrations, corresponding to twofold serial dilutions from the maximum concentration, were evaluated, with each concentration tested in duplicate. DMSO was set at 0.5% final concentration in each well, including in the untreated conditions. At the end of the treatment, cells were fixed 1 hour at 4°C by addition of cold 10 % trichloroacetic acid to a final 3.33 % concentration, then washed 4 times with water. The plates were dried and the cells stained for 30 minutes with 0.057 % (wt/vol) Sulforhodamine B (SRB) in 1% acetic acid, then washed 4 times with 1% acetic acid and dried. The dye was resuspended by a 1 h 30 incubation in 200 µL of 10 mM Tris-base and the absorbance at 490 nm measured with a plate reader (µquant, Bio-tek). For normalization, the background value was subtracted to each value, the duplicates averaged and the untreated condition set to 100% cell viability. CC50 were computed from at least three independent experiments using the GraphPad Prism software using a non-linear regression to a four-parameter logistic curve (log[inhibitor] vs response; variable slope).

Series [4] concerns M. abscessus. Nature of the series: Antibacterial activity MIC, M. abscessus. Particulars: Mycobacteroides abscessus.
The mark [5] stands for this setting: M. tuberculosis (Table 4), read-out: Antibacterial activity MIC M. tuberculosis.

Our source for the MIC and CC50 values is patent publication EP4613730A1, “LIPIDIC ALKYNYLCARBINOLS WITH ANTI-BACTERIAL AND ANTI-TUBERCULOSIS ACTIVITY” (priority 2024, dated 2025).

≈ marks a conversion by molar mass, not a printed value. Where two headings read alike, the source gives them in different places. Where only a bound is given, the exact number is not on record here.

Consider `CCCCCCCCCCCC(O)C#CC(O)CC` (stereo not drawn) [Compound 6, Heptadec-4-yne-3,6-diol], for which the MIC (commonly the lowest concentration found to suppress growth) is 2.5 µM (≈ 0.671 µg/mL) in series [1] (setting [5]); 2.5 µM (≈ 0.671 µg/mL) in series [1] (M. tuberculosis H37Rv, 7H9 broth, 6 days incubation then MTT 24 h, read-out: Anti-Mtb MIC); 10 µM (≈ 2.68 µg/mL) in series [4]. Further, the CC50 (in general, the concentration giving 50% cytotoxicity) at 72 h in series [2] was 43.2 µM; in series [3] it was 40 µM.

Consider `CCCCCCCCCCCCC#CC(O)CC` (stereo not drawn) [Compound 22, Heptadec-4-yn-3-ol], for which the minimum inhibitory concentration (MIC) is 2.5 µM (≈ 0.631 µg/mL) in series [1] (setting [5]) and > 20 µM in series [4]. The figures for the CC50 at 72 h in series [2] and in series [3] were > 50 µM and 12 µM, respectively.
